From patent US12342823B2, “Active compound combinations having insecticidal/acaricidal properties” (Bayer Aktiengesellschaft, priority 2018, dated 2025)

System: green peach aphid (Myzus persicae)
Assay: Myzus persicae - spray test on cabbage leaves
Format: in vivo
Conditions: mortality, 1600 ppm, spray on infested cabbage leaves
Procedure: The expected efficacy of a given combination of two compounds is calculated as follows (see Colby, S.R., “Calculating Synergistic and antagonistic Responses of Herbicide Combinations”, Weeds 15, pp. 20-22, 1967):
If • X is the efficacy expressed in % mortality of the untreated control for test compound A at a concentration of m ppm or m g/ha, • Y is the efficacy expressed in % mortality of the untreated control for test compound B at a concentration of n ppm or n g/ha, • E is the efficacy expressed in % mortality of the untreated control using the mixture of A and B at m and n ppm respectively m and n g/ha, • then is
If the observed insecticidal efficacy of the combination is higher than the one calculated as “E”, then the combination of the two compounds is more than additive, i.e., there is a synergistic effect.
Myzus persicae—Spray Test
• Solvent: 7 parts by weight of dimethylformamide • Emulsifier: alkylaryl polyglycol ether
To produce a suitable preparation of active compound, 1 part by weight of active compound is mixed with the stated amount of solvent and is diluted with water, containing an emulsifier concentration of 1000 ppm, to the desired concentration. […]
After the specified period of time mortality in % is determined. […] The mortality values determined thus are recalculated using the Colby-formula (see sheet 1).

C=C(C)[C@H]1CC=C(C)CC1 [(R)-(+)-limonene 97%, (R)-(+)-limonene]
Efficacy in % after 6 days: 0%
